How the values were obtained:
His-containing maquette = assay: Absorption spectra of porphyrin with His-containing maquette; type: binding; conditions: 4 μM porphyrin, 2 μM maquette
Source text: (§1) The structural requirements for tetrapyrrole self-assembly in aqueous solution were first tested with Zn tetraphenyl porphyrins. The solubility in polar and non-polar environments was adjusted through combinations of hydrophobic and hydrophilic groups at the meso positions. Zn tetrapyrrole pigments discussed in this text are abbreviated with bold numbers, with full chemical names given in the Experimental section and structures illustrated in the figures. […] Thus, one non-polar edge of a Zn porphyrin was sufficient to provide facile binding.
(§2) Blue, green and red spectra correspond to no maquette, His-free maquette or His-containing maquette, respectively. Panel (A) and (B) show spectra for 4 μM porphyrins (1) or (2) respectively with 2 μM maquette, when present.
(§3) Protein solutions were prepared in CHES buffer (20 mM, 150 mM KCl, pH 9.0). Binding was monitored by UV/Vis Soret band absorbance on a Varian Cary-50 spectrophotometer at room temperature in a 1 cm path quartz cuvette. Secondary structure was monitored by CD spectroscopy (Aviv Model 410) at 25 °C with a 1 mm path quartz cuvette. Thermal denaturation was followed by monitoring the ellipticity at 222 nm every 5 °C after 15 minutes of equilibration. Melting temperatures were calculated using a Boltzmann equation with one term for each observed transition.

[1] = tested on: His-free control maquette; assay: Absorption spectra of porphyrin with His-free control maquette; type: binding; conditions: 4 μM porphyrin, 2 μM maquette
Source text: as §1, §2, §3

[2] = Water solubility of the tetrapyrrole (qualitative); type: physicochemical
[3] = tested on: His-containing four-helix maquette (histidines at positions 7 and 112); assay: Cofactor binding titration into His maquette, UV/Vis spectra analysed by SVD; conditions: for comparative binding affinity, in words: maquette, Fig. 4; for Kd: CHES buffer pH 9.0, 25 °C, SVD fit of spectral titration, read-out: Kd (dissociation constant for each His site)
Source text: To determine the acceptable range and pattern of hydrophobic vs. hydrophilic perimeters for Zn porphyrins, we synthesized all permutations of phenyl and carboxyphenyl tetra meso substituents (Fig. 3 and 4). The visible spectral changes that occurred as these porphyrins were titrated into a His maquette solution were fitted to a simple binding model with a single dissociation constant (K d) for each His site using singular value decomposition.[16] […] At least one hydrophobic and one hydrophilic group substitution is necessary for porphyrin ligating to the maquettes with nanomolar affinities.
as §3
Pigment stock solutions were weighed out and solubilized in dimethylsulfoxide to give concentrations of 1 mM Zn porphyrins, 1 mM chlorin (11), 500 μM chlorin (12), and 2 mM chlorin (13). Binding of Zn porphyrins shift the Soret peak from 422 nm to 432 nm. Binding of chlorins shift the Soret band from 415 nm to 423 nm for (12), 411 nm to 425 nm for (13), and 409 nm to 417 nm for (11). Dissociation constants (K d values) were determined as follows. To 1 ml of protein solution at 25 °C, 1 μl additions of 0.2 (porphyrin) or 0.1 (chlorin) equivalent aliquots were added successively to obtain a spectrum from 300 to 700 nm. At 1 equivalent of cofactor the DMSO concentration is 1%. Titrations typically ended at 4 equivalents of cofactor. […] The amplitudes of the first two principle components as a function of total pigment added fit well to a mathematical model of a single dissociation constant for each protein binding site to generate fit spectral extinction coefficients at each wavelength for the unbound and bound pigment spectra as well as values and error estimates for the dissociation constants.

protein maquette = assay: Stopped-flow mixing of tetrapyrrole and maquette (binding kinetics); conditions: for binding speed, in words: stopped-flow mixing
Description: Tetrapyrrole and protein were added to separate syringes of an OLIS RSM 1000 stopped flow spectrophotometer, which takes a full visible spectrum every millisecond through a 2 cm flow cell after rapid (∼2 ms deadtime) mixing. Temperature was controlled with a Fischer-Scientific IsoTemp 3031 water bath. Individual wavelengths were selected for further kinetic analysis. All experiments were performed in triplicate, and the data were averaged together for further analysis.
Title: Design and engineering of water -soluble light-harvesting protein maquettes Goutham Kodali, Joshua A. Mancini, Lee A. Solomon, Tatiana Esipova, Nicholas Roach, Christopher J. Hobbs, Pawel Wagner, Olga A. Mass, Kunche Aravindu, Jonathan E. Barnsley, Keith C. Gordon, David L. Officer, P. Leslie Dutton and Christopher C. Moser*
Figure S1: Proliferating carbox ylic groups on the 15- porph yrin substituent leads to faster […]
Conditions: 2 µ M of protein maquette in 20 mM CHES, 150 mM KCl mixed with one equivalent of porphyrin, either 5- phen yl-15-carbox y phen ylporph yrin [9] (red) or 5- phen yl -15- Newkome phen ylporphyrin [10] (green).
Normalized absorbance i ncreas e with time in seco nds.

maquette = assay: Thermal denaturation of maquette by circular dichroism at 222 nm; conditions: 2 μM maquette with 2 equivalents of cofactor
Description: Fig. 7 Thermal stability of the maquette increased upon tetrapyrrole binding. Circular dichroism at 222 nm monitors alpha helical folding for 2 μM maquette without (blue) or with (red) 2 equivalents of (11) as a function of temperature.
as §3

Compound: O=S(=O)([O-])c1ccc(-c2c3nc(c(-c4ccc(S(=O)(=O)[O-])cc4)c4ccc([n-]4)c(-c4ccc(S(=O)(=O)[O-])cc4)c4nc(c(-c5ccc(S(=O)(=O)[O-])cc5)c5ccc2[n-]5)C=C4)C=C3)cc1.[Zn+2].[Zn+2].[Zn+2] [compound 1, Zn(II) 5,10,15,20-tetra(4-sulphonatophenyl)porphyrin]
- association with His-containing maquette (Soret spectral change) (His-containing maquette): does not associate with either maquette
- association with His-free maquette (Soret spectral change) [1]: does not associate with either maquette
- water solubility, in words [2]: highly water-soluble

Compound: O=S(=O)([O-])c1ccc(-c2c3nc(c(-c4ccc(S(=O)(=O)[O-])cc4)c4ccc([n-]4)c(-c4ccc(S(=O)(=O)[O-])cc4)c4nc(c(-c5ccccc5)c5ccc2[n-]5)C=C4)C=C3)cc1.O=S(=O)([O-])c1ccc(-c2c3nc(c(-c4ccc(S(=O)(=O)[O-])cc4)c4ccc([n-]4)c(-c4ccc(S(=O)(=O)[O-])cc4)c4nc(c(-c5ccccc5)c5ccc2[n-]5)C=C4)C=C3)cc1.[Zn+2].[Zn+2].[Zn+2].[Zn+2].[Zn+2] [compound 2, Zn(II) 5,10,15-tri(4-sulphonatophenyl)-5-phenylporphyrin]
- association with His-containing maquette (Soret spectral change) (His-containing maquette): indicative of histidine ligation
- association with His-free maquette (Soret spectral change) [1]: partial association of the tetrapyrrole with the maquette

Compound: C1=Cc2nc1c(-c1ccccc1)c1ccc([n-]1)c(-c1ccccc1)c1nc(c(-c3ccccc3)c3ccc([n-]3)c2-c2ccccc2)C=C1.[Zn+2] [compound 3, Zn(II) 5,10,15,20-tetraphenylporphyrin, reference compound]
- comparative binding affinity, in words [3]: too weak to measure accurately

Compound: O=C(O)c1ccc(-c2c3nc(c(-c4ccccc4)c4ccc([n-]4)c(-c4ccccc4)c4nc(c(-c5ccccc5)c5ccc2[n-]5)C=C4)C=C3)cc1.[Zn+2] [compound 4, Zn(II) 5-4-(carboxyphenyl)-10,15,20-triphenylporphyrin]
- affinity relative to (5), (6) and (7) ([3]; His maquette, estimated): about two orders of magnitude tighter

Compound: O=C(O)c1ccc(-c2c3nc(c(-c4ccc(C(=O)O)cc4)c4ccc([n-]4)c(-c4ccc(C(=O)O)cc4)c4nc(c(-c5ccc(C(=O)O)cc5)c5ccc2[n-]5)C=C4)C=C3)cc1.[Zn+2] [compound 8, Zn(II) 5,10,15,20-tetra(4-carboxyphenyl)porphyrin]
- comparative binding affinity, in words [3]: too weak to measure accurately

Compound: O=C(O)c1ccc(-c2c3nc(cc4ccc([n-]4)c(-c4ccccc4)c4nc(cc5ccc2[n-]5)C=C4)C=C3)cc1.[Zn+2] [compound 9, Zn(II) 5-phenyl-15-(p-carboxyphenyl)porphyrin]
- time for binding equilibrium to reach completion (protein maquette; stopped flow, 2 µM maquette, one equivalent of porphyrin, 20 mM CHES, 150 mM KCl): 20 min

Compound: Cc1ccc(-c2c3nc(cc4ccc([nH]4)c(-c4ccc(C(=O)O)cc4)c4nc(cc5ccc2[nH]5)C(C)(C)C4)C=C3)cc1 [compound 11, 15-(4-carboxyphenyl)-17,18-dihydro-18,18-dimethyl-5-p-tolylporphyrin]
- structure stabilization corresponding to the Tm shift (maquette): 6.8 kcal mol^–1
- thermal mid point transition of α-helical structure (Tm) upon chlorin binding (maquette; 46 °C without cofactor): 61 °C
- Kd ([3]; His maquette): 80 ± 10 nM
- binding speed, in words (protein maquette): binds much faster than the similarly substituted porphyrin (9)

Compound: CC1(C)Cc2nc1cc1cc(C#Cc3ccccc3)c(cc3nc(cc4ccc([n-]4)c2-c2ccc(C(=O)O)cc2)C=C3)[n-]1.[Zn+2] [compound 12, Zn(II) 15-(4-carboxyphenyl)-17,18-dihydro-18,18-dimethyl-3-(phenylethynyl)porphyrin]
- lowering of affinity relative to (11) ([3]; His maquette, Kd of (12) vs (11)): 4.5 fold

Compound: C=Cc1c(C)c2[n]3c1=CC1=[N+]4C(=Cc5c(C)c6c7[n]5[Zn-2]34[N+]3=C(C=2)[C@@H](C)[C@H](CCC(=O)O)C3=C7[C@@H](C(=O)OC)C6=O)C(CC)=C1C (stereo partly drawn) [compound 13, Zn pheophorbide a]
- Kd ([3]; His maquette): 4 ± 3 nM

Compound: Zn(II) 5-phenyl-15-(p-carboxyphenyl)porphyrin with first generation Newkome dendrimer [compound 10]
- Kd ([3]; His maquette): 250 ± 47 nM
- binding speed, in words (protein maquette): few ms timescale
- water solubility, in words [2]: substantially increased the water solubility

Source: PMC5330312, “Design and engineering of water-soluble light-harvesting protein maquettes” (Chemical Science, 2016)
